# From ChEMBL document CHEMBL2203089, “Synthesis of enantiomerically pure perhydro-1,4-diazepine-2,5-dione and 1,4-piperazine-2,5-dione derivatives exhibiting potent activity as apoptosis inhibitors” (Bioorg Med Chem Lett, 2012)
# The source made the active and inactive calls. The calls are words filed in the database; no cut-off is given here.
# What was measured:
# [1] = Inhibition of Apaf-1-caspase 9-cytochrome c (horse) complex assessed as inhibition of release of afc from […] preincubated for 60 mins before substrate addition by fluorescence assay
# [2] = target: Apoptotic protease-activating factor 1/Caspase-3/Caspase-9/Cytochrome c (Homo sapiens, UniProt O14727+P42574+P55211+P99999); test: Inhibition of Apaf-1-caspase 9-cytochrome c-caspase 3 complex in human HEK293 cytosolic extract using afc-DEVD as substrate preincubated for 30 mins before substrate addition measured after 30 mins by fluorescence assay
# [3] = Inhibition of beta-lactamase
# Sequence of Apoptotic protease-activating factor 1/Caspase-3/Caspase-9/Cytochrome c (O14727 whole entry): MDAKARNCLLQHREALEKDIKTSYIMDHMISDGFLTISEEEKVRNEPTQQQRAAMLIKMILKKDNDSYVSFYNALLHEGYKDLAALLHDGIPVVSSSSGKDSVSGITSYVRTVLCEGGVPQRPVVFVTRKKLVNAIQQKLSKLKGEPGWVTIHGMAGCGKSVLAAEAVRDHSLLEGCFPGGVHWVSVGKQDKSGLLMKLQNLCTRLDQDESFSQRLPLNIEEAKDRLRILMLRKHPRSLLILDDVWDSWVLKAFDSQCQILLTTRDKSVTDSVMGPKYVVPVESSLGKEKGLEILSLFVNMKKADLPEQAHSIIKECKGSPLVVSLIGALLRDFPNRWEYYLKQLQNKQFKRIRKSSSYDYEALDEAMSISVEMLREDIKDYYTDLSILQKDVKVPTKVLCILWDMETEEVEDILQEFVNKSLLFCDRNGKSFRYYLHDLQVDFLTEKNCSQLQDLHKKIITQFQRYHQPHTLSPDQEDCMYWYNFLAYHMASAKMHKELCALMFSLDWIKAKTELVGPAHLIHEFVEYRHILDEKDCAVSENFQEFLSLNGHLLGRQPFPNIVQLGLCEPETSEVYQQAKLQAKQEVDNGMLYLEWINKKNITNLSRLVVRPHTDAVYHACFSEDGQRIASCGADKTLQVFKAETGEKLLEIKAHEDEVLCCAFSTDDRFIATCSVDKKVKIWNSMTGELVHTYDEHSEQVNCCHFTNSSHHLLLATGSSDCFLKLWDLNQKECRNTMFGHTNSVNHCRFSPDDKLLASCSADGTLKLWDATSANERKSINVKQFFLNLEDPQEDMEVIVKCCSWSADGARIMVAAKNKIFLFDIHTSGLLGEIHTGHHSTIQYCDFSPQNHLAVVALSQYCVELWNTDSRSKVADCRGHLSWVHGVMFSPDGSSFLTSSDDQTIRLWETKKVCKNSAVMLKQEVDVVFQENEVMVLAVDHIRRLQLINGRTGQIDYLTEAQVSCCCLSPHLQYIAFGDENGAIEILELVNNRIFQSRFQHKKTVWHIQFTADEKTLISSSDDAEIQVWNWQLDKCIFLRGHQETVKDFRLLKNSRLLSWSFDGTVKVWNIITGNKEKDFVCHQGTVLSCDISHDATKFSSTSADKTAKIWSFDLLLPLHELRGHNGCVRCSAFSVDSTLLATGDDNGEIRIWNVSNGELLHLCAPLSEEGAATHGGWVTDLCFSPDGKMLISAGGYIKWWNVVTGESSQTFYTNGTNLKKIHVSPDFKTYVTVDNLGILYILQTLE
# Sequence of Apoptotic protease-activating factor 1/Caspase-3/Caspase-9/Cytochrome c (P42574 29-175 limits assumed): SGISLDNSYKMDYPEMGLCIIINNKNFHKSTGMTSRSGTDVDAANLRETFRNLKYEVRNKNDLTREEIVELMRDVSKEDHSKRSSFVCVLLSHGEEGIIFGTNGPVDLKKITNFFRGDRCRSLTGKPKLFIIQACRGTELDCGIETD
# Sequence of Apoptotic protease-activating factor 1/Caspase-3/Caspase-9/Cytochrome c (P42574 176-277 limits assumed): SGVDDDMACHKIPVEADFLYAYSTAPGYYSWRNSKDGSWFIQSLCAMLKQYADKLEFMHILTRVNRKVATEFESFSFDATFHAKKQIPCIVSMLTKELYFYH
# Sequence of Apoptotic protease-activating factor 1/Caspase-3/Caspase-9/Cytochrome c (P55211 1-315 limits assumed): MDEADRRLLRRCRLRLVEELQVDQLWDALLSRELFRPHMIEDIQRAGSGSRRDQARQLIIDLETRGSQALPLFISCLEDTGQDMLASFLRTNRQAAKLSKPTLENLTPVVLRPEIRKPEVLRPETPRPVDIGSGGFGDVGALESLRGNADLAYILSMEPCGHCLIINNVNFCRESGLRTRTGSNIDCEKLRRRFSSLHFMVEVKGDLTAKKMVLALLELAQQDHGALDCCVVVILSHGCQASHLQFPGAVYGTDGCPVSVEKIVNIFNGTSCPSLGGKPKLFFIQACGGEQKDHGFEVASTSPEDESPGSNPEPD
# Sequence of Apoptotic protease-activating factor 1/Caspase-3/Caspase-9/Cytochrome c (P55211 331-416 limits assumed): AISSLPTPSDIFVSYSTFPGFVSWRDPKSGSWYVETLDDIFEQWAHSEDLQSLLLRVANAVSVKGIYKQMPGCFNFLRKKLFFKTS
# Sequence of Apoptotic protease-activating factor 1/Caspase-3/Caspase-9/Cytochrome c (P99999 2-105 limits assumed): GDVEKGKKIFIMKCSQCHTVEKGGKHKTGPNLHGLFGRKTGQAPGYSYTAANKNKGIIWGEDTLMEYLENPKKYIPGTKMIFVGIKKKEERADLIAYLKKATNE
Structure (SMILES),EC50 [1] [µM],EC50 [2] [µM],inhibition [3]
NC(=O)CN(CCc1ccc(Cl)cc1Cl)C(=O)C1CC(=O)N(CCc2ccc(Cl)cc2Cl)CC(=O)N1CCC(c1ccccc1)c1ccccc1 (racemic),7.9,16.8,–
NC(=O)CN(CCc1ccc(Cl)cc1Cl)C(=O)[C@H]1CC(=O)N(CCc2ccc(Cl)cc2Cl)CC(=O)N1CCC(c1ccccc1)c1ccccc1,5,14.4,inactive
NC(=O)CN(CCc1ccc(Cl)cc1Cl)C(=O)[C@@H]1CC(=O)N(CCc2ccc(Cl)cc2Cl)CC(=O)N1CCC(c1ccccc1)c1ccccc1,3.2,14,inactive

# The next lines start with the values.
EC50 [1] [µM],EC50 [2] [µM],inhibition [3],Structure (SMILES)
9.6,23.9,inactive,NC(=O)CN(CCc1ccc(Cl)cc1Cl)C(=O)C[C@H]1C(=O)N(CCc2ccc(Cl)cc2Cl)CC(=O)N1CCC(c1ccccc1)c1ccccc1
10.6,29.9,inactive,NC(=O)CN(CCc1ccc(Cl)cc1Cl)C(=O)C[C@@H]1C(=O)N(CCc2ccc(Cl)cc2Cl)CC(=O)N1CCC(c1ccccc1)c1ccccc1
6.2,17,–,NC(=O)CN(CCc1ccc(Cl)cc1Cl)C(=O)CC1C(=O)N(CCc2ccc(Cl)cc2Cl)CC(=O)N1CCC(c1ccccc1)c1ccccc1 (racemic)
